The values that follow come from patent US10301690B2, “Streptomyces filamentosus variant and method for producing daptomycin using same” (priority 2013, dated 2019).

This experiment concerns Staphylococcus aureus. The experiment can be described thus: Agar-well method: growth inhibition of the indicator strain. Type of experiment: cell-based. The following applies: 130 μl in agar well, read-out: Radius of inhibition zone. As for the experimental part:
A parent strain, streptomyces filamentosus ATCC 31568 was cultured by slant culture at 30° C. for 12 days to collect spores, and then the spores were suspended in a physiological saline, followed by serial dilution of 10^−2, 10^−3, and 10^−4, and plating on plate media. After pre-incubation at 30° C. for 2 hours, the plates were irradiated for 118 seconds in a glove box placed at a distance of 65 cm from two 20 W UV bulbs of 280 nm wavelength. In this regard, the death rate was 99.9%. […] Colonies that survived on the agar plates at 30° C. for 6 days were collected, followed by seed culture and fermentation culture according to a method of the following Example 4. Fermentation was performed using a 500 ml-baffled flask in a shaking incubator under conditions of 30° C., 260 rpm for 7 days.
After completion of the culture, the culture broth was centrifuged. An agar-well method which is a biological detection method was used in order to examine growth inhibition of an indicator strain, Staphylococcus aureus. The agar-well method was applied to the analysis, because this method is an easy and simple method with lower errors, compared to other methods. This method is based on a principle that a diffusion rate is determined by a difference in a concentration gradient upon diffusion of a sample on an agar gel, and the radius of inhibition zone for a predetermined time is known to be proportional to the log of the concentration value. Based on this principle, antibiotic concentrations in unknown samples can be measured. This method was performed by the following procedure: before a trypticase soy broth agar medium solidified, the indicator strain Staphylococcus aureus was added thereto and uniformly suspended therein. The medium was poured into a […] and allowed to solidify. Next, wells were punched into the agar using a stainless steel borer having a diameter of 5 mm, and agar in the well was suctioned by vacuum aspiration. The amount of the sample in the agar well was 130 μl, and a control group daptomycin was prepared and used in an amount of 0, 50, 100, 200, 300, and 1000 μg/ml.

Turning to `CCCCCCCCCC(=O)N[C@@H](Cc1c[nH]c2ccccc12)C(=O)N[C@H](CC(N)=O)C(=O)N[C@@H](CC(=O)O)C(=O)N[C@@H]1C(=O)NCC(=O)N[C@@H](CCCN)C(=O)N[C@@H](CC(=O)O)C(=O)N[C@H](C)C(=O)N[C@@H](CC(=O)O)C(=O)NCC(=O)N[C@H](CO)C(=O)N[C@@H]([C@H](C)CC(=O)O)C(=O)N[C@@H](CC(=O)c2ccccc2N)C(=O)O[C@@H]1C` [Daptomycin, daptomycin], the zone of inhibition at 50 µg/mL (Daptomycin control 0.05 mg/ml) was 8.6 mm. The zone of inhibition at 100 µg/mL (Daptomycin control 0.10 mg/ml) came to 10.6 mm. The zone of inhibition at 200 µg/mL (Daptomycin control 0.20 mg/ml) is 12 mm. Also, under “Daptomycin control 0.30 mg/ml”, the zone of inhibition at 300 µg/mL amounted to 13.2 mm. The zone of inhibition at 1000 µg/mL (Daptomycin control 1.00 mg/ml) is 16 mm.
